Results taken from patent US10131744B2, “Antimicrobial polyamide compositions and mastitis treatment” (priority 2013, dated 2018).

System: Pseudomonas aeruginosa
Assay: MIC in broth against Pseudomonas aeruginosa
Assay type: cell-based
Design: unit not given beside the values
Experimental: The antimicrobial efficacy of twenty-five antimicrobial polymers (and Erythromycin) was evaluated using an MIC assay. For each study, a doubling dilution concentration of each antimicrobial polymer was prepared at 2× the final concentration range (0.12 to 16 μg/mL), and 100 μL of the API-null formulation was dispensed into the negative control wells. Overall, the antimicrobial polymer-containing compositions performed comparably well, or better, against the pathogens, as compared to Erythromycin (ERY).

Measured: MIC against Pseudomonas aeruginosa

CC[C@H]1OC(=O)[C@H](C)[C@@H](O[C@H]2C[C@@](C)(OC)[C@@H](O)[C@H](C)O2)[C@H](C)[C@@H](O[C@@H]2O[C@H](C)C[C@H](N(C)C)[C@H]2O)[C@](C)(O)C[C@@H](C)C(=O)[C@H](C)[C@@H](O)[C@]1(C)O [Ery, Erythromycin]
>8: strain # 58 | strain # 59 | strain # 60 | strain # 61 | strain # 62 | strain # 63 | strain # 64 | strain # 65 | strain # 66 | strain # 67
